In patent publication US20110245159A1, “Salts, Solvates and Pharmaceutical Compositions of Macrocyclic Ghrelin Receptor Agonists and Methods of Using the Same” (priority 2009, published 2011):
Values belong to the compound of their own block, whether it stands above or below them.

Experiments:
[1] = Dynamic vapor sorption/desorption (DVS) hygroscopicity; format: physicochemical
Procedure: The hygroscopicity of salts, solvates and polymorphs of the invention can be assessed by both static and dynamic hygroscopicity studies. For the latter, dynamic vapor sorption/desorption (DVS) experiments can be performed on an SGA-100 gravimetric sorption analyzer (or similar). The experimental protocol typically included full weight equilibrium at 0% RH.
The hygroscopicity of compound 298.HCl.H2O was assessed by both static and dynamic vapor sorption/desorption (DVS) experiments were performed at 25° C. according to Method 4M.

[2] = Static hygroscopicity study; format: physicochemical; settings: 3 months, 80% RH, 25° C.
Procedure: The static hygroscopicity study was performed by exposing compound 298.HCl.H2O for a period of 3 months to 80% RH humidity at 25° C. […] The sample was analyzed at 1-week, 1-month, 2-month and 3-month time points by the following methods: DSC, thermogravimetric analysis and Karl-Fischer titrimetry.

[3] = Stability testing of compound 298.HCl.H2O at storage conditions; format: physicochemical
Description: For determining the stability of an active pharmaceutical ingredient (API) or a pharmaceutical composition, the approach as outlined for regulatory purposes in International Conference on Harmonisation of Technical Requirements for Registration of Pharmaceuticals for Human Use (ICH) Q1A Guideline: Stability Testing of New Drug Substances and Products, February 2003, can be followed. In summary, this entails repetition of certain analytical tests on samples stored at three representative controlled conditions to ascertain whether or not any degradation or loss of potency has occurred. The typical conditions employed are: (1) 25° C.±2° C., 60%±5% relative humidity (RH); (2) 30° C.±2° C., 65%±5% RH; (3) 40° C.±2° C., 75%±5% RH (often termed accelerated stability). The photostability as outlined in International Conference on Harmonisation of Technical Requirements for Registration of Pharmaceuticals for Human Use (ICH) Q1B Guideline: Stability Testing: Photostability Testing of New Drug Substances and Products, November 1996, is typically also investigated.
The purpose of this procedure is to determine the purity of representative salts, solvates and polymorphs of the invention by reverse phase HPLC. Any appropriate detection method compatible with HPLC can be utilized, such as single or dual wavelength ultraviolet (UV) detection, evaporative light scattering detection (ELSD) or chemiluminescent nitrogen detection (CLND). For most cases, UV detection would be preferred. Purity can be determined by peak area %. The same assay conditions are used to determine the level of impurities and the potency. The parameters for this HPLC assay are delineated below.
Moisture level is determined by Karl Fischer titrimetry using the direct titration method, in accordance with USP <921 1a>.

[4] = rat, in vivo, sc
Procedure: Formulations A, B-1, B-2 and B-3 were administered to male Sprague-Dawley rats subcutaneously (sc) at a dosing volume of 5 mL/kg.
Blood was collected via the JVC into tubes containing sodium EDTA (NaEDTA) and placed on ice until centrifugation. Samples were centrifuged at 13,000 rpm for 5 min with the temperature maintained at 4° C. Plasma was separated and stored frozen on dry ice prior to analysis.
The pharmacokinetic (PK) parameters for each animal were calculated using non-compartmental modeling (extravascular input model) and WinNonlin software (version 5.2, Pharsight). The half-life (t1/2), Area Under the Concentration Versus Time Curve from time 0 to the last quantifiable point (AUC0-t) and to infinity (AUC0-∞) were calculated and the observed Cmax and Tmax tabulated for each animal and dose group. […] The terminal elimination rate constant was calculated for the purpose of obtaining the extrapolated AUC0-∞ values.

[5] = humans, unspecified formulation; cited from earlier work
POI = settings: unspecified formulation; cited from earlier work
GH secretion = settings: animal models; cited from earlier work
diabetic gastroparesis = settings: unspecified formulation; cited from earlier work
[6] = Solubility of compound 298 salts, HPLC-CLND; settings: 20 mg compound 298 + 0.5 mL aqueous acid (1.1 eq), agitated 72 h
Procedure: The pH of the solution was then measured and the amount of dissolved salt determined by HPLC-CLND analysis.

[7] = Batch 1, 25° C., 60% RH, 12 mos
[8] = Batch 1, 25° C., 60% RH, 18 mos
[9] = Batch 1, 25° C., 60% RH, 24 mos
[10] = Example 3, 25° C., 60% RH, 0 mos
[11] = Example 3, 25° C., 60% RH, 3 mos
[12] = Example 3, 25° C., 60% RH, 6 mos
[13] = Example 3, 25° C., 60% RH, 9 mos
[14] = Example 3, 25° C., 60% RH, 12 mos
[15] = Example 3, 25° C., 60% RH, 18 mos
[16] = Example 3, 40° C., 75% RH, 0 mos
[17] = Example 3, 40° C., 75% RH, 1 mos
[18] = Example 3, 40° C., 75% RH, 3 mos
[19] = Example 3, 40° C., 75% RH, 6 mos

Hygroscopicity [1]: Non-hygroscopic | Hygroscopicity ([1]; DVS, 25° C.): essentially non-hygroscopic | Weight change ([1]; DVS, 25° C., 20%-90% relative humidity range): 1% | Weight loss (lattice water lost) ([1]; DVS, 25° C., equilibration at 0% RH): 2.6% | Deliquescence [2]: No deliquescence was detected | Hygroscopicity ([2]; static study): essentially non-hygroscopic | HPLC Assay (% Purity) ([3]; Batch 1, 5° C., 0 mos): 100.48% | Total Impurities (%) ([3]; Batch 1, 5° C., 0 mos): 0.41% | HPLC Assay (% Purity) ([3]; Batch 1, 5° C., 3 mos): 98.72% | Total Impurities (%) ([3]; Batch 1, 5° C., 3 mos): 0.39% | HPLC Assay (% Purity) ([3]; Batch 1, 5° C., 6 mos): 98.48% | Total Impurities (%) ([3]; Batch 1, 5° C., 6 mos): 0.42% | HPLC Assay (% Purity) ([3]; Batch 1, 5° C., 9 mos): 100.78% | Total Impurities (%) ([3]; Batch 1, 5° C., 9 mos): 0.47% | HPLC Assay (% Purity) ([3]; Batch 1, 5° C., 12 mos): 98.19% | Total Impurities (%) ([3]; Batch 1, 5° C., 12 mos): 0.42% | HPLC Assay (% Purity) ([3]; Batch 1, 5° C., 18 mos): 98.68% | Total Impurities (%) ([3]; Batch 1, 5° C., 18 mos): 0.43% | HPLC Assay (% Purity) ([3]; Batch 1, 5° C., 24 mos): 100.15% | Total Impurities (%) ([3]; Batch 1, 5° C., 24 mos): 0.43% | HPLC Assay (% Purity) ([3]; Batch 1, 25° C., 60% RH, 0 mos): 100.48% | Total Impurities (%) ([3]; Batch 1, 25° C., 60% RH, 0 mos): 0.41% | HPLC Assay (% Purity) ([3]; Batch 1, 25° C., 60% RH, 1 mos): 98.99% | Total Impurities (%) ([3]; Batch 1, 25° C., 60% RH, 1 mos): 0.40% | HPLC Assay (% Purity) ([3]; Batch 1, 25° C., 60% RH, 3 mos): 98.39% | Total Impurities (%) ([3]; Batch 1, 25° C., 60% RH, 3 mos): 0.40% | HPLC Assay (% Purity) ([3]; Batch 1, 25° C., 60% RH, 6 mos): 98.81% | Total Impurities (%) ([3]; Batch 1, 25° C., 60% RH, 6 mos): 0.42% | HPLC Assay (% Purity) ([3]; Batch 1, 25° C., 60% RH, 9 mos): 100.65% | Total Impurities (%) ([3]; Batch 1, 25° C., 60% RH, 9 mos): 0.46% | HPLC Assay (% Purity) [3, 7]: 97.59% | Total Impurities (%) [3, 7]: 0.49% | HPLC Assay (% Purity) [3, 8]: 99.81% | Total Impurities (%) [3, 8]: 0.21% | HPLC Assay (% Purity) [3, 9]: 100.24% | Total Impurities (%) [3, 9]: 0.48% | HPLC Assay (% Purity) ([3]; Batch 1, 40° C., 75% RH, 0 mos): 100.48% | Total Impurities (%) ([3]; Batch 1, 40° C., 75% RH, 0 mos): 0.41% | HPLC Assay (% Purity) ([3]; Batch 1, 40° C., 75% RH, 1 mos): 98.49% | Total Impurities (%) ([3]; Batch 1, 40° C., 75% RH, 1 mos): 0.39% | HPLC Assay (% Purity) ([3]; Batch 1, 40° C., 75% RH, 3 mos): 98.22% | Total Impurities (%) ([3]; Batch 1, 40° C., 75% RH, 3 mos): 0.40% | HPLC Assay (% Purity) ([3]; Batch 1, 40° C., 75% RH, 6 mos): 98.41% | Total Impurities (%) ([3]; Batch 1, 40° C., 75% RH, 6 mos): 0.44% | HPLC Assay (% Purity) [3, 10]: 99.9% | Potency Assay (HPLC wt %) [3, 10]: 89.1 wt % | Total Impurities (%) [3, 10]: 0.06% | Water Content (%) [3, 10]: 3.9% | HPLC Assay (% Purity) [3, 11]: 99.9% | Potency Assay (HPLC wt %) [3, 11]: 90.2 wt % | Total Impurities (%) [3, 11]: 0.12% | Water Content (%) [3, 11]: 4.2% | HPLC Assay (% Purity) [3, 12]: 99.9% | Potency Assay (HPLC wt %) [3, 12]: 90.1 wt % | Total Impurities (%) [3, 12]: 0.07% | Water Content (%) [3, 12]: 4.1% | HPLC Assay (% Purity) [3, 13]: 99.9% | Potency Assay (HPLC wt %) [3, 13]: 90.5 wt % | Total Impurities (%) [3, 13]: 0.06% | Water Content (%) [3, 13]: 4.3% | HPLC Assay (% Purity) [3, 14]: 99.9% | Potency Assay (HPLC wt %) [3, 14]: 89.9 wt % | Total Impurities (%) [3, 14]: 0.06% | Water Content (%) [3, 14]: 3.1% | HPLC Assay (% Purity) [3, 15]: 99.8% | Potency Assay (HPLC wt %) [3, 15]: 89.8 wt % | Total Impurities (%) [3, 15]: 0.07% | Water Content (%) [3, 15]: 4.0% | HPLC Assay (% Purity) [3, 16]: 99.9% | Potency Assay (HPLC wt %) [3, 16]: 89.1 wt % | Total Impurities (%) [3, 16]: 0.06% | Water Content (%) [3, 16]: 3.9% | HPLC Assay (% Purity) [3, 17]: 99.8% | Potency Assay (HPLC wt %) [3, 17]: 88.4 wt % | Total Impurities (%) [3, 17]: 0.18% | Water Content (%) [3, 17]: 3.5% | HPLC Assay (% Purity) [3, 18]: 99.9% | Potency Assay (HPLC wt %) [3, 18]: 92.1 wt % | Total Impurities (%) [3, 18]: 0.12% | Water Content (%) [3, 18]: 3.7% | HPLC Assay (% Purity) [3, 19]: 99.9% | Potency Assay (HPLC wt %) [3, 19]: 89.6 wt % | Total Impurities (%) [3, 19]: 0.07% | Water Content (%) [3, 19]: 4.2% | Appearance as a white powder ([3]; Example 3, over the 6 month period): remained unchanged | AUC0-∞ dependence on dose [4]: increased proportionally with dose | Increase in Cmax with dose [4]: less than dose-proportional
Compound: CC1CNC(C2CC2)C(=O)N(C)C(C)C(=O)NC(Cc2ccc(F)cc2)C(=O)NCCCc2ccccc2O1.Cl.O (stereo not drawn) [Compound 298•HCl•H2O]
XRPD analysis ([3]; Example 3, both storage conditions after 6 months): still consistent with the standard pattern

Compound: C[C@@H]1CN[C@@H](C2CC2)C(=O)N(C)[C@H](C)C(=O)N[C@H](Cc2ccc(F)cc2)C(=O)NCCCc2ccccc2O1 [compound 298]
Safety and pharmacokinetic properties [5]: appropriate safety and pharmacokinetic properties | Efficacy for the treatment of POI (POI): efficacy | Concurrent GH secretion (GH secretion): did not stimulate concurrent GH secretion | Efficacy for the treatment of diabetic gastroparesis (diabetic gastroparesis): efficacy

pH at 72 hr [6]: 3.6
Compound: Fumarate
